Laboratory results: article PMC6222509, “Dibasic Derivatives of Phenylcarbamic Acid against Mycobacterial Strains: Old Drugs and New Tricks?” (Molecules : A Journal of Synthetic Chemistry and Natural …, 2018)
In brackets after ≈: the same amount, converted by molar mass. Like-named read-outs stand apart in the source and are kept apart here.

Experiments:
[1] = electronic properties, UV/Vis spectrophotometry of methanolic solutions; format: physicochemical; conditions: methanolic solution c = 8.0 × 10^−5 M; for log ε2 (Ch-T): charge-transfer maximum λ2 (Ch-T) = 236–238 nm; for log ε1: λ1 = 208–210 nm; for log ε3: λ3 = 278–280 nm
Description: Electronic properties of the molecules 1a–p (Table 1) were characterized by logarithms of molar absorption coefficients (log ε) of their methanolic solutions (c = 8.0 × 10^−5 M) investigated in the UV/Vis region of an electromagnetic spectrum.
Positions of these absorption bands in the spectrum were typical for derivatives of (substituted) phenylcarbamic acid and the bands were assigned as first local excitation (λ3), charge-transfer (λ2 (Ch-T)) and second local excitation (λ1) absorption maxima, respectively. The λ1 and λ2 (Ch-T) maxima of 2-alkoxy substituted compounds 1a–d and 1i–l were slightly lower compared to those of their 3-alkoxy substituted positional isomers 1e–h and 1m–p (Table 1), respectively.
The UV/Vis spectra of methanolic solutions of analyzed compounds 1a–p (c = 8.0 × 10^−5 M) were observed on the 8452A Diode Array spectrophotometer HP-8452A (Hewlett-Packard, Palo Alto, CA, USA) at 21 °C. Methanol for UV-spectroscopy (Merck, Darmstadt, Germany) was used for preparation of these solutions. Results of the UV/Vis analyses were collected and stored digitally using the ChemStation controller software (Agilent Technologies, Waldbronn, Germany). The HP-8452A apparatus measured a complete range of compounds’ spectrum from 190 nm to 820 nm.
The log ε values for presently observed absorption maxima were calculated following the Lambert-Beer’s law, which was discussed in [35], for example, and expressed by Equation (16):A = ε × c × l(16) where the A parameter represented absorbance of a compound’s solution, the ε descriptor was a molar absorption coefficient (in L/mol/cm units) and l was path length (in cm units).

[2] = lipophilicity by isocratic RP-HPLC (log k, k, log kw, S); format: physicochemical; conditions: for log kw: extrapolated to 100% water from log k versus ϕM; for S (slope): slope of log k versus ϕM regression
Description: Octadecyl-functionalized silica gel was currently used as a stationary phase (SPh) and a […] of two solvents at different volume ratios modified retention properties of the SPh. Liquid binary mixtures of methanol (MeOH) with water were employed as mobile phases (MPhs) in the isocratic RP-HPLC. The MeOH modifier was preferred because of similarity of both observed and extrapolated lipophilicity parameters with the ones determined in the octan-1-ol/water partition system, considering also sensitivity to H-bond donor properties of investigated compounds [41].
The modifier was applied in different volume concentrations, which varied from […] (v/v) with 5% increments. This interval was chosen due to very high lipophilicity of investigated salts. Practically, lower volume concentration of MeOH, i.e., less than 85% (v/v) in used MPhs, caused uncertainty of retention times (tr) due to notable peaks broadening, especially within subsets 1i–l and 1m–p. […] The highest tr parameters were found for the molecules 1k (tr = 47.108 min) and 1l (tr = 70.012 min) in the MPh containing 85% proportion (v/v) of MeOH (Table 2).
According to the authors’ opinions based on systematic scientific literature survey, a current research paper was the first, which aimed the log kw parameters of 2-/3-alkoxyphenylcarbamic acid derivatives containing two centers of protonation. The log kw values were extrapolated from intercepts of a relationship between log k and volume fraction of the MPh modifier (ϕM) using the Snyder–Soczewiński linear solvent strength model. The relationship was justified by R > 0.9900, Adj. R^2 > 0.9750 as well as F > 180.00 for calculation of particular log kw parameters (Table 3).
The HPLC separation module Waters e2695 equipped with a Waters 2996 PDA Detector (Waters Corp., Milford, MA, USA) and chromatographic column Symmetry C18 × 5 μm, 4.6 × 250 mm, Part No. W21751W016 (Waters Corp.) were used for estimation of lipophilic properties of the compounds 1a–p at 21 °C.
Isocratic elution was carried out using mobile phases consisting of methanol p.a. (MeOH; Honeywell, Paris, France) and purified water in various volume ratios (80:20, 85:15, 90:10, 95:5 (v/v) and pure MeOH, respectively). Distilled water (CentralChem, Bratislava, Slovak Republic) was purified by the Aquinity2 P10 ultra-pure water system for production of ultra-pure water with an integrated 10 L permeate tank (membraPure, Hennigsdorf, Germany).
Total flow of the column was 1.0 mL/min, injection volume was 4 μL and column temperature was set to 40 °C. The detection wavelengths varying from 236 nm to 238 nm were chosen for current experimental procedures.
Lipophilicity of the compounds 1a–p was determined by reversed-phase high-performance liquid chromatography (RP-HPLC). Methanol (MeOH)/water mobile phases with varying volume ratio of the organic modifier and water (80:20, 85:15, 90:10, 95:5 (v/v) and pure MeOH, respectively) were chosen.
A methanolic solution of potassium iodine was used for dead time (td) determination. Retention factors (capacity factors; k) were calculated according to Equation (17):k = (tr− td)/td(17) where tr was retention time of a solute (in min), the td parameter denoted dead time of potassium iodine, an unretained analyte (in min).
The observed retention (tr) and dead (td) times were means of three independent determinations. Average td values of potassium iodine in used MPhs were as follows: 2.237 min (MeOH/water ratio (v/v) was 80:20), 2.245 min (85:15), 2.245 min (90:10), 2.228 min (95:5) and 2.210 min (pure MeOH), respectively. […]

[3] = test system: M. marinum CAMP 5644 (MM); assay: in vitro antimycobacterial MIC, broth dilution micromethod in Middlebrook 7H9; format: cell-based, Mycobacterium marinum; conditions: Mycobacterium marinum, 504 h
[4] = test system: M. kansasii DSM 44162 (MK DSM); assay: as above; format: cell-based; conditions: Mycobacterium kansasii, DSM 44162 / DSM 7, 168 h
[5] = mobile phase MeOH/water 80:20 (v/v)
[6] = mobile phase MeOH/water 85:15 (v/v)
[7] = mobile phase MeOH/water 90:10 (v/v)
[8] = mobile phase MeOH/water 95:5 (v/v)
[9] = read-out: MIC MM 21-d, 21-day cultivation, 28 °C
[10] = read-out: MIC MK DSM 7-d, 7-day cultivation, 37 °C
[11] = 21-day cultivation, 28 °C, read-out: MIC MM 21-d
[12] = 7-day cultivation, 37 °C, read-out: MIC MK DSM 7-d

Row | Compound | log ε2 (Ch-T) [1] | log ε1 [1] | log ε3 [1] | log kw [2] | k (retention factor) [2, 5] | log k [2, 5] | k (retention factor) [2, 6] | log k [2, 6] | k (retention factor) [2, 7] | log k [2, 7] | k (retention factor) [2, 8] | log k [2, 8] | k (retention factor) ([2]; mobile phase pure MeOH) | log k ([2]; mobile phase pure MeOH) | S (slope) [2] | MIC [3, 9] | MIC [4, 10] | MIC [3, 11] | MIC [4, 12]
1 | CCCCCCCOc1cccc(NC(=O)OC(CN(CCC)CCC)CN2CCCCCC2)c1.Cl.Cl (stereo not drawn) [1p, 1-[2-[({[3-(heptyloxy)phenyl]amino}carbonyl)-oxy]-3-(dipropylammonio)propyl]azepanium dichloride] | 4.20 | 4.65 | 3.56 | 6.1749 | 14.0734 | 1.1484 | 6.6298 | 0.8215 | 4.0476 | 0.6072 | 1.6036 | 0.2051 | 0.7759 | −0.1102 | 6.2672 | 7.1 µM | 3.6 µM |  | 
2 | CCCCCCCOc1ccccc1NC(=O)OC(CN(CCC)CCC)CN1CCCC1.Cl.Cl (stereo not drawn) [1d, 1-[2-[({[2-(heptyl-oxy)phenyl]amino}carbonyl)oxy]-3-(dipropylammonio)propyl]pyrrolidinium dichloride] | 4.08 | 4.43 | 3.55 | 4.9487 | 12.8588 | 1.1092 | 7.7304 | 0.8882 | 5.0373 | 0.7022 | 2.5421 | 0.4052 | 1.4365 | 0.1573 | 4.7736 | 12.5 µM | 6.2 µM |  | 
3 | CCCCOc1cccc(NC(=O)OC(CN(CCC)CCC)CN2CCCC2)c1 (stereo not drawn) [1e] | 4.24 | 4.65 | 3.59 | 4.0258 | 3.6174 | 0.5584 | 2.0811 | 0.3183 | 1.4054 | 0.1478 | 0.7155 | −0.1454 | 0.5063 | −0.2956 | 4.3434 |  |  | 32.5 µM (≈ 13.6 µg/mL) | 16.2 µM (≈ 6.8 µg/mL)
4 | CCCCCCOc1ccccc1NC(=O)OC(CN(CCC)CCC)CN1CCCC1 (stereo not drawn) [1c] | 4.52 | 4.58 | 3.49 | 4.6049 | 10.4858 | 1.0206 | 6.5494 | 0.8162 | 4.0300 | 0.6053 | 2.3351 | 0.3683 | 1.3449 | 0.1287 | 4.4634 |  |  | 25.5 µM (≈ 11.4 µg/mL) | 12.7 µM (≈ 5.69 µg/mL)
5 | CCCCCOc1cccc(NC(=O)OC(CN(CCC)CCC)CN2CCCC2)c1.Cl.Cl (stereo not drawn) [1f, 1-[2-[({[3-(pentyloxy)phenyl]amino}carbonyl)oxy]-3-(dipropylammonio)propyl]-pyrrolidinium dichloride] | 4.27 | 4.55 | 3.62 | 4.6722 | 4.5436 | 0.6574 | 3.0981 | 0.4911 | 1.7972 | 0.2546 | 0.8052 | −0.0941 | 0.5113 | −0.2913 | 4.9652 | < 3.9 µM | 7.9 µM |  | 
6 | CCCCCCOc1ccccc1NC(=O)OC(CN(CCC)CCC)CN1CCCCCC1 (stereo not drawn) [1k] | 4.10 | 4.42 | 3.57 | 5.2359 | 20.0586 | 1.3023 | 11.0255 | 1.0424 | 6.3650 | 0.8038 | 3.3274 | 0.5221 | 2.1394 | 0.3303 | 4.9286 |  |  | 98 µM (≈ 46.6 µg/mL) | 98 µM (≈ 46.6 µg/mL)
